Test results published in ChEMBL document CHEMBL4828724 (Eur J Med Chem, 2021).

Columns and labels:
[1] = biological target: T1, Synaptic vesicular amine transporter (Rattus norvegicus, UniProt Q01827); test: Inhibition of [3H]DTBZ binding to VMAT2 in rat brain incubated for 30 mins by liquid scintillation spectrometry analysis; type: tissue-based
[2] = biological target: Synaptic vesicular amine transporter (Rattus norvegicus) (UniProt Q01827); test: Inhibition of [3H]DA uptake at VMAT2 in rat striatal synaptosome at 1 uM incubated for 10 mins followed by [3H]DA addition and measured after 20 mins by TopCount scintillation counting method relative to control; type: subcellular; conditions: Striatum, time 30.0 min
Sequence of Synaptic vesicular amine transporter (Rattus norvegicus) (Q01827 whole entry): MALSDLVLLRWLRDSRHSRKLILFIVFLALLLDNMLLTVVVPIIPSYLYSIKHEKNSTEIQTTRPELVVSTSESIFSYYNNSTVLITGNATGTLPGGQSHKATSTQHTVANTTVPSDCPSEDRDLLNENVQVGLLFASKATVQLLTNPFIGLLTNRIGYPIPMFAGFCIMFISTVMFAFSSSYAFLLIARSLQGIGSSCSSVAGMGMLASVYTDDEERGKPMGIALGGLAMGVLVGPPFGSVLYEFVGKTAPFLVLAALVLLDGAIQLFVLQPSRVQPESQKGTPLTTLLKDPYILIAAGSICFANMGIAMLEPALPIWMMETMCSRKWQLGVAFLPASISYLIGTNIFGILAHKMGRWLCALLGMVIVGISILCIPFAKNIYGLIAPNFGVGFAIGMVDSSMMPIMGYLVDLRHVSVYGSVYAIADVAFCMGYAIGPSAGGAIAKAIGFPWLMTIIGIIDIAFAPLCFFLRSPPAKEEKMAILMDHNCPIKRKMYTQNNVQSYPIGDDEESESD

[3] = biological target: Synaptic vesicular amine transporter (Rattus norvegicus) (UniProt Q01827); test: Inhibition of [3H]DA uptake at VMAT2 in rat striatal synaptosome at 0.1 uM incubated for 10 mins followed by [3H]DA addition and measured after 20 mins by TopCount scintillation counting method relative to control; type: subcellular; conditions: Striatum, time 30.0 min
[4] = biological target: T1, Synaptic vesicular amine transporter; test: Inhibition of [3H]DA uptake at VMAT2 in rat striatal synaptosome incubated for 10 mins followed by [3H]DA addition and measured after 20 mins by TopCount scintillation counting method; type: subcellular, Striatum
[5] = Metabolic stability in monkey liver microsomes assessed as parent compound remaining at 1 uM in the presence of NADPH measured after 60 mins by LC-MS/MS analysis; type: ADME, Macaca mulatta, Microsome; conditions: rhesus monkey, liver microsomes, read-out: Stability
[6] = Metabolic stability in mouse liver microsomes assessed as parent compound remaining at 1 uM in the presence of NADPH measured after 60 mins by LC-MS/MS analysis; type: ADME, Microsome; conditions: for remaining at 1 h, 1 µM: liver microsomes, read-out: Stability
[7] = Metabolic stability in human liver microsomes assessed as parent compound remaining at 1 uM in the presence of NADPH measured after 60 mins by LC-MS/MS analysis; type: ADME, Microsome; conditions: read-out: Stability
[8] = Metabolic stability in monkey liver microsomes assessed as intrinsic clearance at 1 uM in the presence of NADPH measured for 60 mins by LC-MS/MS analysis; type: ADME, Macaca mulatta, Microsome; conditions: rhesus monkey, read-out: CLH
[9] = Metabolic stability in mouse liver microsomes assessed as intrinsic clearance at 1 uM in the presence of NADPH measured for 60 mins by LC-MS/MS analysis; type: ADME, Microsome; conditions: read-out: CLH
[10] = Metabolic stability in human liver microsomes assessed as intrinsic clearance at 1 uM in the presence of NADPH measured for 60 mins by LC-MS/MS analysis; type: ADME, Microsome; conditions: read-out: CLH
[11] = Metabolic stability in human liver microsomes assessed as half life at 1 uM in the presence of NADPH measured for 60 mins by LC-MS/MS analysis; type: ADME, Microsome
[12] = Metabolic stability in mouse liver microsomes assessed as half life at 1 uM in the presence of NADPH measured for 60 mins by LC-MS/MS analysis; type: ADME, Microsome; conditions: for half-life at 1 µM: liver microsomes
[13] = Metabolic stability in monkey liver microsomes assessed as half life at 1 uM in the presence of NADPH measured for 60 mins by LC-MS/MS analysis; type: ADME, Macaca mulatta, Microsome; conditions: rhesus monkey
[14] = biological target: Voltage-gated inwardly rectifying potassium channel KCNH2 (Homo sapiens, UniProt Q12809); test: Inhibition of human ERG
Sequence of Voltage-gated inwardly rectifying potassium channel KCNH2 (Q12809 whole entry): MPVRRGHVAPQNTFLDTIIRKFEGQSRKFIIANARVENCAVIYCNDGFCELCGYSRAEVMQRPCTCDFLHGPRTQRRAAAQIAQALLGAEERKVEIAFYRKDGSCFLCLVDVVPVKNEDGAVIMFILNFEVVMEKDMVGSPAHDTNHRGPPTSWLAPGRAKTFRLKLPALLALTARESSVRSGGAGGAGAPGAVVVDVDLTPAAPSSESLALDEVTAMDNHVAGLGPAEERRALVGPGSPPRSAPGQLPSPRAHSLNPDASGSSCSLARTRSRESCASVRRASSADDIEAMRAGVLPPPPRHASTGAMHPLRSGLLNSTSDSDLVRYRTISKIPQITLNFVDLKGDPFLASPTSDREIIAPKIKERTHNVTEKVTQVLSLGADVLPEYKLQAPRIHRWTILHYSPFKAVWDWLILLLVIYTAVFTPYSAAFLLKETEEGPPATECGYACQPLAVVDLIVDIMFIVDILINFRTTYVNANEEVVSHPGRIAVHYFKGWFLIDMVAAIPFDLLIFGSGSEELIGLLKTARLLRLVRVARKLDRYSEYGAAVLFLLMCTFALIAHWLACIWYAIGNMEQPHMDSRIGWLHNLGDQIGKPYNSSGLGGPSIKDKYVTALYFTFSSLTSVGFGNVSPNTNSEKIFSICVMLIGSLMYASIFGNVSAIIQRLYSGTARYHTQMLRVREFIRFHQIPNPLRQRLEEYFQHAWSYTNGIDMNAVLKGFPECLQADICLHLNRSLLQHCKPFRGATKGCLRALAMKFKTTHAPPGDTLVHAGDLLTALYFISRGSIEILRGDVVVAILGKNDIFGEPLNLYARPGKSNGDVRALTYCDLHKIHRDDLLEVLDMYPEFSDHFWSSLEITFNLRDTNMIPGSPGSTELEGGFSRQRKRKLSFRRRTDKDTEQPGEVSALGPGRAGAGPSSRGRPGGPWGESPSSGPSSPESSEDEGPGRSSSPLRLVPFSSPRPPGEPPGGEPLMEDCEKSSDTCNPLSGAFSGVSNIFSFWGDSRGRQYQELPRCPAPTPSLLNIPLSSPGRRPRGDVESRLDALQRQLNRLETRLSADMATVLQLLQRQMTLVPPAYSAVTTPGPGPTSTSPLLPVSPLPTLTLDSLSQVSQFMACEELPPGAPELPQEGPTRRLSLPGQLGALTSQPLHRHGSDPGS

T1 sequence (Q01827 whole entry): as the sequence (Q01827 whole entry) above

Row | IC50 [1] [nM] | inhibition [2] [%] | inhibition [3] [%] | IC50 [4] [nM] | CLint scaled at 1 µM [9] [mL/min/kg] | CLint scaled at 1 µM [10] [mL/min/kg] | SMILES | other results
1 | 210 | – | – | – | – | – | CC(C)CC1CN2CCc3cc(OCC4CC4)c(OCC4CC4)cc3C2CC1O (stereo not given) | –
2 | > 500 | – | – | – | – | – | CCOc1cc2c(cc1OCC1CC1)C1CC(O)C(CC(C)C)CN1CC2 (stereo not given) | –
3 | 87 | 93.7 | 85 | 27.9 | – | – | COc1cc2c(cc1OC)C1CC(O)(C#N)C(CC(C)C)CN1CC2 (stereo not given) | –
4 | 12.5 | – | – | – | 535 | 22.5 | CCCOc1cc2c(cc1OCC)C1CC(O)C(CC(C)C)CN1CC2 (stereo not given) | remaining at 1 h, 1 µM [5]: 6.6%; remaining at 1 h, 1 µM [6]: 1.3%; remaining at 1 h, 1 µM [7]: 47.3%; CLint scaled at 1 µM [8]: 120 mL/min/kg; half-life at 1 µM [11]: 55.4 min; half-life at 1 µM [12]: 10.3 min; half-life at 1 µM [13]: 15.6 min
5 | – | – | – | – | – | – | COc1cc2c(cc1OC)[C@H]1C[C@@H](OC(=O)[C@@H](N)C(C)C)[C@H](CC(C)C)CN1CC2 [VALBENAZINE] | IC50 [14]: 1700 nM
6 | – | – | – | – | 254 | 76 | COc1cc2c(cc1OC)C1CC(=O)C(CC(C)C)CN1CC2 (stereo not given) [TETRABENAZINE] | remaining at 1 h, 1 µM [5]: 10.5%; remaining at 1 h, 1 µM [6]: 13.4%; remaining at 1 h, 1 µM [7]: 30.8%; CLint scaled at 1 µM [8]: 149 mL/min/kg; half-life at 1 µM [11]: 32.8 min; half-life at 1 µM [12]: 21.6 min; half-life at 1 µM [13]: 12.6 min
7 | 5.99 | 99.2 | 96 | 17.8 | 522 | 19.4 | COc1cc2c(cc1OCC1CC1)CCN1CC(CC(C)C)C(O)CC21 (stereo not given) | remaining at 1 h, 1 µM [5]: 17.6%; Stability ([6]; microsomes, 1 h, 1 µM): 22.6%; remaining at 1 h, 1 µM [7]: 74.7%; CLint scaled at 1 µM [8]: 72.4 mL/min/kg; half-life at 1 µM [11]: 128 min; t1/2 ([12]; microsomes, 1 h, 1 µM): 10.5 min; half-life at 1 µM [13]: 25.9 min
8 | 73.2 | – | – | – | – | – | CCOc1cc2c(cc1OCCCOC)C1CC(O)C(CC(C)C)CN1CC2 (stereo not given) | –
9 | > 500 | 81.7 | 33.2 | – | – | – | CCC1(O)CC2c3cc(OC)c(OC)cc3CCN2CC1CC(C)C (stereo not given) | –
10 | – | 99.3 | 91.2 | 35.2 | – | – | CCCOc1cc2c(cc1OC)C1CC(O)C(CC(C)C)CN1CC2 (stereo not given) | –
11 | 8.02 | 99.7 | 99.1 | 5.14 | 143 | 109 | COc1cc2c(cc1OC)C1CC(O)(CO)C(CC(C)C)CN1CC2 (stereo not given) | –
12 | 102 | 87.9 | 72.8 | – | – | – | COc1cc2c(cc1OC)C1CC(N)C(CC(C)C)CN1CC2 (stereo not given) | –
